This is an account of results in ChEMBL document CHEMBL4251602, “Synthesis and biological evaluation of novel 1-(aryl-aldehyde-oxime)uracil derivatives as a new class of thymidine phosphorylase inhibitors” (Eur J Med Chem, 2018).

One data set addresses T1, Thymidine phosphorylase (Homo sapiens, UniProt P19971).
T1 sequence (P19971 whole entry): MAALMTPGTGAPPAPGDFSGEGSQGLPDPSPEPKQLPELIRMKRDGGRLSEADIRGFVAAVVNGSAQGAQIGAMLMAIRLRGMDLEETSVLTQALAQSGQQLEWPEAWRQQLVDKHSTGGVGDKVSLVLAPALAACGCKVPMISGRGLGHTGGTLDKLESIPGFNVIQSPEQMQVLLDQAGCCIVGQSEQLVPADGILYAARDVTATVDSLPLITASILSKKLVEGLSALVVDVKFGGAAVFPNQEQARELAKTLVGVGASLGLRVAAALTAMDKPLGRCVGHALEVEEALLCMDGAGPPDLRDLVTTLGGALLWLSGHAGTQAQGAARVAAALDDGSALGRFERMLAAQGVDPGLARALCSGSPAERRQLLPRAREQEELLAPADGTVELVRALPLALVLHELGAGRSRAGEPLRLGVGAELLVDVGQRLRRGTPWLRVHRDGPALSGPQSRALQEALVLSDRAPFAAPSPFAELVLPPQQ

The test system of data set [1] is NIH3T3. Put plainly: Cytotoxicity against mouse 3T3 cells at 50 uM by SRB assay. In kind it is cell-based. Conditions: nih3t3, 50 µM. (Sulforhodamine B stains cellular protein and so reports cell mass.)
Data set [2] relates to NIH3T3. Put plainly: Cytotoxicity against mouse 3T3 cells by SRB assay. The data set is classed as functional, cell-based.
Data set [3] can be described thus: Stability in bovine serum assessed as parent pure compound remaining at 1 mg measured within 10 days by HPLC analysis. Conditions: cattle, 240 h. The data set is classed as ADME, cell-free, Bos taurus.
The nature of data set [4]: Stability in water assessed as parent pure compound remaining at 1 mg measured within 10 days by HPLC analysis (reference value: 95%). In kind it is physicochemical. Conditions: read-out: Stability.
Substrate in data set [5]: Cc1cc(=O)[nH]c(=O)n1/C(=N\O)c1ccc(Cl)c(Cl)c1
Conditions: Homo sapiens.

Regarding `COc1cccc(/C(=N\O)n2cc(I)c(=O)[nH]c2=O)c1`, 33.4 µM corresponded to half-maximal inhibition against Thymidine phosphorylase (IC50).

Molecule `O=c1[nH]c(=O)n(/C(=N/O)c2ccccc2)cc1I` returned an IC50 at Thymidine phosphorylase of 37.3 µM.

`COc1cccc(/C(=N/O)n2c(C)cc(=O)[nH]c2=O)c1` returned an IC50 against Thymidine phosphorylase of 25.1 µM.

In the case of `Cc1ccc(/C(=N/O)n2c(C)cc(=O)[nH]c2=O)cc1`, the Activity result with NIH3T3 [1] is listed as “Non-Toxic”. Moreover, inhibition against Thymidine phosphorylase was half-maximal at 7.2 µM (IC50).

Regarding `CCc1ccc(/C(=N/O)n2c(C)cc(=O)[nH]c2=O)cc1`, the Activity result with NIH3T3 [1] was “Non-Toxic”. The 50% inhibitory concentration (IC50) against Thymidine phosphorylase came to 3.4 µM.

Regarding `Cc1cc(=O)[nH]c(=O)n1/C(=N\O)c1ccc(Cl)cc1`, in the data set with NIH3T3 [1], the Activity result is reported as “Non-Toxic”. Besides, it took 1.4 µM to reach half-maximal inhibition against Thymidine phosphorylase (IC50).

Regarding `Cc1cc(=O)[nH]c(=O)n1/C(=N\O)c1ccccc1`, at Thymidine phosphorylase, the IC50 came out at 21.4 µM.

Turning to `O=c1[nH]c(=O)n(/C(=N/O)c2ccccc2F)cc1I`, the midpoint of inhibition against Thymidine phosphorylase, the IC50, lay at 53.7 µM.

The molecule `Cc1cc(=O)[nH]c(=O)n1/C(=N\O)c1cccc(F)c1` registered an IC50 against Thymidine phosphorylase of 41.2 µM.

In the case of `COc1ccc(/C(=N\O)n2cc(I)c(=O)[nH]c2=O)cc1`, inhibition on Thymidine phosphorylase was half-maximal at 25.2 µM (IC50).

As for `C[C@@H]1C[C@@H]([C@H](O)CC2CC(=O)NC(=O)C2)C(=O)[C@@H](C)C1` [CYCLOHEXIMIDE], the 50% inhibitory concentration (IC50) in the data set with NIH3T3 [2] stood at 0.3 µM.

Regarding `Cc1cc(=O)[nH]c(=O)n1/C(=N\O)c1cccs1`, half-maximal inhibition at Thymidine phosphorylase (IC50) was put at 39.9 µM.

With `Cc1cc(=O)[nH]c(=O)n1/C(=N\O)c1ccc(Br)cc1`, the IC50 at Thymidine phosphorylase came out at 2.7 µM.

`CO/N=C(\c1ccccc1)n1c(C)cc(=O)[nH]c1=O` yielded a half-inhibitory concentration (IC50) against Thymidine phosphorylase of 85.6 µM.

In turn, `COc1ccc(/C(=N/O)n2c(C)cc(=O)[nH]c2=O)cc1` had an IC50 against Thymidine phosphorylase of 16.5 µM.

`Cc1cc(=O)[nH]c(=O)n1/C(=N\O)c1ccccc1F`: inhibition on Thymidine phosphorylase was half-maximal at 49.3 µM (IC50).

On to `Cc1cc(=O)[nH]c(=O)n1C(=O)c1ccccc1`, for which, on Thymidine phosphorylase, inhibition was half-maximal at 92.4 µM (IC50).

In turn, `Cc1ccc(/C(=N\O)n2cc(I)c(=O)[nH]c2=O)cc1` yielded an IC50 against Thymidine phosphorylase of 22.5 µM.

In the case of `Cc1cc(=O)[nH]c(=O)n1/C(=N\O)c1ccc(Cl)c(Cl)c1`, the Activity result in the data set with NIH3T3 [1] was “Non-Toxic”. Moreover, in data set [3], the Stability result is listed as “Stable”. Further, the remaining at 240 h in data set [4] amounted to 87%. On Thymidine phosphorylase, the half-maximal inhibitory concentration (IC50) worked out at 0.12 µM.

In the case of `CCc1ccc(/C(=N\O)n2cc(I)c(=O)[nH]c2=O)cc1`, half-maximal inhibition on Thymidine phosphorylase (IC50) required 10.7 µM.

The molecule `O=c1[nH]c(=O)n(/C(=N/O)c2ccc(F)cc2)cc1I` gave an IC50 against Thymidine phosphorylase of 41.3 µM.

`O=c1[nH]c(=O)n(/C(=N/O)c2ccc(Cl)cc2)cc1I`: on Thymidine phosphorylase, inhibition was half-maximal at 15.6 µM (IC50).

In the case of `Cc1cc(=O)[nH]c(=O)n1/C(=N\O)c1ccc(F)cc1`, inhibition at Thymidine phosphorylase was half-maximal at 44.1 µM (IC50).

`Cc1cccc(/C(=N/O)n2c(C)cc(=O)[nH]c2=O)c1` returned a 50% inhibitory concentration (IC50) against Thymidine phosphorylase of 15.9 µM.

B1: Thymidine phosphorylase (Homo sapiens), P19971 (protein)
chain: T1 sequence (P19971 whole entry)
On to B1, for which the Km in data set [5] was 2000 µM.

As usually defined, the IC50 is the concentration at which inhibition is half-maximal. Low values mean higher potency, high ones lower potency. One may read the Km as the substrate concentration at which the rate is half of its maximum.
